{"source": "patent US20240245677A1", "about": "“SELECTED COMPOUNDS FOR TARGETED DEGRADATION OF BRD9” (C4 THERAPEUTICS, INC., priority 2021, published 2024)", "target": "T1, GSPT1 (Homo sapiens, UniProt P15170+Q96SW2)", "T1 construct": "CRISPR-edited to endogenously express HiBiT tagged GSPT1; host or cells: HEK293T.114", "T1 sequence (P15170 whole entry)": "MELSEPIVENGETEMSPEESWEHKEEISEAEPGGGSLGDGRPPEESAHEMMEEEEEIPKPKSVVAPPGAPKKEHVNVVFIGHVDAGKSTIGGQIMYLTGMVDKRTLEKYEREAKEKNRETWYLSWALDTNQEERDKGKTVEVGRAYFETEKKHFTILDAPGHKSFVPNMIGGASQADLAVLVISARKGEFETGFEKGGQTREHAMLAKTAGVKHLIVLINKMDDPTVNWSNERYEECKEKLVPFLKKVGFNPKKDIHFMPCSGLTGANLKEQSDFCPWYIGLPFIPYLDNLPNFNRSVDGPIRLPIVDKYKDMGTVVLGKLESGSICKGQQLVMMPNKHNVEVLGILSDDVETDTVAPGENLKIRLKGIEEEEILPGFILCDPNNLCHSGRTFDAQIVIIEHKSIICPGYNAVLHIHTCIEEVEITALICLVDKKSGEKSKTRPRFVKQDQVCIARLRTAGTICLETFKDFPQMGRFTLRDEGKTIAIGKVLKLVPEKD", "T1 sequence (Q96SW2 whole entry)": "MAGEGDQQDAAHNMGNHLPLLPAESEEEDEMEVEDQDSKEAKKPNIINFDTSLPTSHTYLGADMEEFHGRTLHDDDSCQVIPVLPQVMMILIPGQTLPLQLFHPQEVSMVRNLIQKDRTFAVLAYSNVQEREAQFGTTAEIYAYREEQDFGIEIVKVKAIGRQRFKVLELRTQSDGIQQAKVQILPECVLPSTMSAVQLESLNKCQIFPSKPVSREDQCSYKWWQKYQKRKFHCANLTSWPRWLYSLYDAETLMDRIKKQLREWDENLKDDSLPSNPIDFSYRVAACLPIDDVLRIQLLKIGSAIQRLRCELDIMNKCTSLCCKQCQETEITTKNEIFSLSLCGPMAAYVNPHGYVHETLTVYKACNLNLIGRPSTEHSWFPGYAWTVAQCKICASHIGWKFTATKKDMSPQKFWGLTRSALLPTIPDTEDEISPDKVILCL", "T1 sequence (Q16531 2-1140 partner limits assumed)": "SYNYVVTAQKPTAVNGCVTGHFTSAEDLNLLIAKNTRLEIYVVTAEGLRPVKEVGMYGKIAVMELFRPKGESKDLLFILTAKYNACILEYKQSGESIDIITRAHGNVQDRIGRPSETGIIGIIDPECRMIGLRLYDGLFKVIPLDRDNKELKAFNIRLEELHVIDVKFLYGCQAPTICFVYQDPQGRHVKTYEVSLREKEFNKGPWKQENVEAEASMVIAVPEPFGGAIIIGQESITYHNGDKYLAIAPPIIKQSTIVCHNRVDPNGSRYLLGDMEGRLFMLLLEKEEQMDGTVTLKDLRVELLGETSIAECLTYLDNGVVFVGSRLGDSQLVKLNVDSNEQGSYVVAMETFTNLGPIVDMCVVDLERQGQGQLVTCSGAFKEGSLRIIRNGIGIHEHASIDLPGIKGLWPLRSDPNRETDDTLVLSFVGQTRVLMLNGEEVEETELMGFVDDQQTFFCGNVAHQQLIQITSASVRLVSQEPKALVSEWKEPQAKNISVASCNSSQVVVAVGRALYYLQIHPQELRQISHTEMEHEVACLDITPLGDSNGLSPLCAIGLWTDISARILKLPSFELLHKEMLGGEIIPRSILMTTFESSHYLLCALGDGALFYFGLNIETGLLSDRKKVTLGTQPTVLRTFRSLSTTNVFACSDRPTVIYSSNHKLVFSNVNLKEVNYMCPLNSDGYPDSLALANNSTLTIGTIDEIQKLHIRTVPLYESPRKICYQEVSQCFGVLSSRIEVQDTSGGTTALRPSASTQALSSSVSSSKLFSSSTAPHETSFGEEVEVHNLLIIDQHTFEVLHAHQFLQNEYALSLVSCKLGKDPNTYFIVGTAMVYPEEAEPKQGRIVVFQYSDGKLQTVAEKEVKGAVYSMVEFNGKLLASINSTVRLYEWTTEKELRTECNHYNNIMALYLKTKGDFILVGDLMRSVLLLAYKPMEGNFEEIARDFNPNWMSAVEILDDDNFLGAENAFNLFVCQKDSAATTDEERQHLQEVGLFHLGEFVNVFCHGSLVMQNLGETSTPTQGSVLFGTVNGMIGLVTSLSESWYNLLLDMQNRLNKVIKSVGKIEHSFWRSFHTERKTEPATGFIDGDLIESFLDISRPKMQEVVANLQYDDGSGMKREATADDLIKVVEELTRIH", "assay": "GSPT1 HiBiT degradation assay in HEK293T.114 cells", "format": "cell-based", "conditions": "6 hours", "excerpt": "This assay evaluated the off-target degradation of the cereblon neosubstrate, Eukaryotic peptide chain release factor GTP-binding subunit ERF3A (GSPT1), induced by treatment with Compound 1 as measured by luminescence using Nano-Glo HiBiT® Lytic Assay System in 293T cells CRISPR-edited to endogenously express HiBiT tagged GSPT1.\nNano-Glo® HiBiT Lytic Assay System was purchased from Promega (Catalog No. N3050, Madison, WI, USA). HEK293T cells were obtained from ATCC (Catalog No. CRL-3216, Manassas, VA, USA), and maintained in DMEM medium (Catalog No. 11995065, ThermoFischer Scientific, Waltham, MA, USA) supplemented with 10% heat inactivated FBS (Catalog No. 16000-044, Gibco, Grand Island, NY, USA) at 37° C. in an atmosphere of 5% CO2 in air. The HiBiT polypeptide tag was introduced into the N-terminus of the endogenous GSPT1 locus by CRISPR-Cas9 to produce the HEK293T.114 modified cell line. The HiBiT polypeptide allows reconstitution of NanoBiT enzyme following cell lysis and addition of the complementing LgBiT polypeptide that activates substrate to produce a luminescent signal that is directly proportional to the amount of HiBiT-tagged GSPT1.\nHEK293T.114 cells were routinely sub-cultured to maintain cell density between 30-80% confluence, not to exceed 20 passages. Cells were washed with PBS, trypsinized for 5 minutes at 37° C., and resuspended in fresh growth media without phenol red. An aliquot was diluted 2× with Trypan Blue solution 0.4% (Catalog No. 15250061, ThermoFisher Scientific, Waltham, MA, USA) and cell count determined. Cell concentration was adjusted with growth media without phenol red to 2×10^5 cells/mL.\nThe 10 mM DMSO stock solutions of Compound 1 or CC0885 were serially diluted (half log) in DMSO to generate 11-point dose series (10000, 3160, 1000, 316, 100, 31.6, 10, 3.2, 1, 0.32, 0.1 μM) in an acoustic ready 384-well low dead volume microplate (Catalog No. LP-0200, Beckman Coulter Life Sciences, Indianapolis, IN, USA). Using an Echo 550 Acoustic Liquid Handler (Beckman Coulter Life Sciences, Indianapolis, IN, USA), 30 nL of serially diluted compound solutions were dispensed in duplicate to each 384-well black TC-treated microplate (Catalog No. 3571, Corning, Glendale, CA, USA). 30 nL DMSO was transferred to all control wells.\n30 μL of HEK293T.114 cells suspended in growth media without phenol red at 2×10^5 cells/mL (6000 cells/well) were dispensed using a Multidrop Combi Reagent Dispenser (Catalog No. 5840300, ThermoFisher Scientific, Waltham, MA, USA) to each well of columns 1-23 of 384-well black TC-treated microplates containing duplicate concentration range of test compounds and DMSO controls. 30 μL of media was dispensed to column 24 as background positive control (P). Plates were spun briefly at 1000 rpm and cells were incubated at 37° C., 5% CO2 for 6 hours. Final concentration of DMSO was 0.1% for all samples.\nCellular GSPT1 protein level was determined based on quantification of HiBiT using Nano-Glo® HiBiT Lytic Assay System (Promega). 30 μL Nano-Glo Lytic Assay reagents were added to each well of columns 1-23 and luminescence was acquired on EnVision® Multilabel Reader (Catalog No. 2104-0010, Perkin Elmer Inc., Dumfries, VA, USA). Column 24 (cells without Nano-Glo reagent addition) was used as plate background or positive control (P). Cells treated in the absence of the test compound (0.1% DMSO vehicle) were the negative control (N)/\nPercent response of compound-treated samples (T) were calculated by normalizing to the DMSO treated negative (N) controls on the same microtiter plate after background (i.e., positive control) signal subtraction:\nCurve fit and DC50 (concentration that degrades 50% GSPT1) determination was performed by 4 parametric logistic fit analysis using software such as GraphPad Prism software (GraphPad Software, LLC, San Diego, CA, USA). […]", "data": [{"smiles": "COc1cc(-c2cn(C)c(=O)c(C)c2C)cc(OC)c1CN1CC[C@H](N2CCN(c3ccc(N[C@H]4CCC(=O)NC4=O)cc3F)CC2)C(F)(F)C1", "note": "[Compound 1, (S)-3-((4-(4-((S)-1-(2,6-dimethoxy-4-(1,4,5-trimethyl-6-oxo-1,6-dihydropyridin-3-yl)benzyl)-3,3-difluoropiperidin-4-yl)piperazin-1-yl)-3-fluorophenyl)amino)-piperidine-2,6-dione]", "values": [{"measurement": "% GSPT1 Remaining, Mean", "setting": "0.100 nM", "result": 97.4, "unit": "%"}, {"measurement": "% GSPT1 Remaining, Mean", "setting": "0.316 nM", "result": 86.7, "unit": "%"}, {"measurement": "% GSPT1 Remaining, Mean", "setting": "1.00 nM", "result": 70.8, "unit": "%"}, {"measurement": "% GSPT1 Remaining, Mean", "setting": "3.15 nM", "result": 34.4, "unit": "%"}, {"measurement": "% GSPT1 Remaining, Mean", "setting": "10.0 nM", "result": 12.4, "unit": "%"}, {"measurement": "% GSPT1 Remaining, Mean", "setting": "31.5 nM", "result": 6.0, "unit": "%"}, {"measurement": "% GSPT1 Remaining, Mean", "setting": "100 nM", "result": 4.0, "unit": "%"}, {"measurement": "% GSPT1 Remaining, Mean", "setting": "317 nM", "result": 3.5, "unit": "%"}, {"measurement": "% GSPT1 Remaining, Mean", "setting": "1000 nM", "result": 3.2, "unit": "%"}, {"measurement": "% GSPT1 Remaining, Mean", "setting": "3161 nM", "result": 3.0, "unit": "%"}, {"measurement": "% GSPT1 Remaining, Mean", "setting": "9990 nM", "result": 3.8, "unit": "%"}, {"measurement": "DC50", "setting": "GSPT1-HiBiT, HEK293T.114 cells, read-out: Geometric Mean DC50", "result": "> 10", "unit": "µM"}, {"measurement": "Emax", "setting": "GSPT1-HiBiT, HEK293T.114 cells, read-out: Mean Emax (%) ± SD", "result": "93.9 ± 5.85", "unit": "%"}, {"measurement": "effect on degradation of GSPT1", "setting": "concentrations up to 10 μM", "result": "no significant effect"}]}]}
